From article PMC6407917, “Identification of GSK3186899/DDD853651 as a Preclinical Development Candidate for the Treatment of Visceral Leishmaniasis” (Journal of Medicinal Chemistry, 2018)

Experiments:
Assay in all cases: biochemical
Parameters in all cases: species or system HEK293/K-562/placenta mixed human extract; Kinobeads chemoproteomic competition binding, quantified by TMT LC-MS/MS, dose response up to 20 uM
PAK4 = PAK4 (Homo sapiens, UniProt O96013)
STK3 = STK3 (Homo sapiens, UniProt Q13188)
IRAK1 = IRAK1 (Homo sapiens, UniProt P51617)
BTK = BTK (Homo sapiens, UniProt Q06187)
CDC42BPA = CDC42BPA (Homo sapiens, UniProt Q5VT25)
CDC42BPA, sequence (Q5VT25 whole entry): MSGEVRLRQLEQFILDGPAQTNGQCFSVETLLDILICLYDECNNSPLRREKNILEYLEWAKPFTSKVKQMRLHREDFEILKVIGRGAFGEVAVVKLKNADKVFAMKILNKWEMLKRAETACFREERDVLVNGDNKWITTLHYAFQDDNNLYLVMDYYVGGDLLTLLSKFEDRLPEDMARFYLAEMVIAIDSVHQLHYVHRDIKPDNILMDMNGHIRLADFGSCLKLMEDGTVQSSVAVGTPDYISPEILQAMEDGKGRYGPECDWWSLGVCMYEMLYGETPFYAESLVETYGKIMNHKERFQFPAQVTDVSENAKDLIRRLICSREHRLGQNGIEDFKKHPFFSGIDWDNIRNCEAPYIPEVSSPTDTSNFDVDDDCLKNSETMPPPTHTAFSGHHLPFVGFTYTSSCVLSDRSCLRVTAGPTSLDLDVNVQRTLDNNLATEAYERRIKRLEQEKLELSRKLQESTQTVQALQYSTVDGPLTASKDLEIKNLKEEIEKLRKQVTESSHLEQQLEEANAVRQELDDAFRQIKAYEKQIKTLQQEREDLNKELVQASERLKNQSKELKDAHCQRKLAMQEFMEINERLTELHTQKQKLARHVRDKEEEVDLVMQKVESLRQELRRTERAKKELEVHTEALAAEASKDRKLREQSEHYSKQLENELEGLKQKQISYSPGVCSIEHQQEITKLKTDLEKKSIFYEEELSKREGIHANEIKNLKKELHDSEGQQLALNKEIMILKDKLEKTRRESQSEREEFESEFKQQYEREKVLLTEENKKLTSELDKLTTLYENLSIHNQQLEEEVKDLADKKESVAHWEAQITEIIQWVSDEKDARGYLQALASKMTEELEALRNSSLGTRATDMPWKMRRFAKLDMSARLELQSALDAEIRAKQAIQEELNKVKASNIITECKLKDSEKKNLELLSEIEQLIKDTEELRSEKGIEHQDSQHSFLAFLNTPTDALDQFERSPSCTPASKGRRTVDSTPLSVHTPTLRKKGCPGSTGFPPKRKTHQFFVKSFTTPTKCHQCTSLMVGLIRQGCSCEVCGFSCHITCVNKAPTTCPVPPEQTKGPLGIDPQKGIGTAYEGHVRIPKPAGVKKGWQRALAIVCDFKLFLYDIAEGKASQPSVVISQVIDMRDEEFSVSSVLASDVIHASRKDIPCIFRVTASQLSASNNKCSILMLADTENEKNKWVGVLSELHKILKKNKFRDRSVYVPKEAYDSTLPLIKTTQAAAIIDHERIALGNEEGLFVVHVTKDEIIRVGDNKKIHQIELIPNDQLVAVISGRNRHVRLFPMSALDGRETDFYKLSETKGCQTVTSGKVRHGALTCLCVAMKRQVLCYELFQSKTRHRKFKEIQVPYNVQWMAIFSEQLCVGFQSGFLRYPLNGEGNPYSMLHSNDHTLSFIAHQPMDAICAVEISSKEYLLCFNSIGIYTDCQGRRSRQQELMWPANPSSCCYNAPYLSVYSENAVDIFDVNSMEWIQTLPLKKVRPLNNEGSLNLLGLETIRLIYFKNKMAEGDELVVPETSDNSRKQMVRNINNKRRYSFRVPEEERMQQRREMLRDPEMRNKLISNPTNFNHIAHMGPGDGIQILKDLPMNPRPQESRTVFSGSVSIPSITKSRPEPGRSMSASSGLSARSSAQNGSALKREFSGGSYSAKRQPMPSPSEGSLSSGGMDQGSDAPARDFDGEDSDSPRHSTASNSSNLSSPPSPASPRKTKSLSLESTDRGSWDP

MAPK9 = MAPK9 (Homo sapiens, UniProt P45984)
NUAK1 = NUAK1 (Homo sapiens, UniProt O60285)
CLK1 = CLK1 (Homo sapiens, UniProt P49759)
MYLK = MYLK (Homo sapiens, UniProt Q15746)
MYLK, sequence (Q15746 whole entry): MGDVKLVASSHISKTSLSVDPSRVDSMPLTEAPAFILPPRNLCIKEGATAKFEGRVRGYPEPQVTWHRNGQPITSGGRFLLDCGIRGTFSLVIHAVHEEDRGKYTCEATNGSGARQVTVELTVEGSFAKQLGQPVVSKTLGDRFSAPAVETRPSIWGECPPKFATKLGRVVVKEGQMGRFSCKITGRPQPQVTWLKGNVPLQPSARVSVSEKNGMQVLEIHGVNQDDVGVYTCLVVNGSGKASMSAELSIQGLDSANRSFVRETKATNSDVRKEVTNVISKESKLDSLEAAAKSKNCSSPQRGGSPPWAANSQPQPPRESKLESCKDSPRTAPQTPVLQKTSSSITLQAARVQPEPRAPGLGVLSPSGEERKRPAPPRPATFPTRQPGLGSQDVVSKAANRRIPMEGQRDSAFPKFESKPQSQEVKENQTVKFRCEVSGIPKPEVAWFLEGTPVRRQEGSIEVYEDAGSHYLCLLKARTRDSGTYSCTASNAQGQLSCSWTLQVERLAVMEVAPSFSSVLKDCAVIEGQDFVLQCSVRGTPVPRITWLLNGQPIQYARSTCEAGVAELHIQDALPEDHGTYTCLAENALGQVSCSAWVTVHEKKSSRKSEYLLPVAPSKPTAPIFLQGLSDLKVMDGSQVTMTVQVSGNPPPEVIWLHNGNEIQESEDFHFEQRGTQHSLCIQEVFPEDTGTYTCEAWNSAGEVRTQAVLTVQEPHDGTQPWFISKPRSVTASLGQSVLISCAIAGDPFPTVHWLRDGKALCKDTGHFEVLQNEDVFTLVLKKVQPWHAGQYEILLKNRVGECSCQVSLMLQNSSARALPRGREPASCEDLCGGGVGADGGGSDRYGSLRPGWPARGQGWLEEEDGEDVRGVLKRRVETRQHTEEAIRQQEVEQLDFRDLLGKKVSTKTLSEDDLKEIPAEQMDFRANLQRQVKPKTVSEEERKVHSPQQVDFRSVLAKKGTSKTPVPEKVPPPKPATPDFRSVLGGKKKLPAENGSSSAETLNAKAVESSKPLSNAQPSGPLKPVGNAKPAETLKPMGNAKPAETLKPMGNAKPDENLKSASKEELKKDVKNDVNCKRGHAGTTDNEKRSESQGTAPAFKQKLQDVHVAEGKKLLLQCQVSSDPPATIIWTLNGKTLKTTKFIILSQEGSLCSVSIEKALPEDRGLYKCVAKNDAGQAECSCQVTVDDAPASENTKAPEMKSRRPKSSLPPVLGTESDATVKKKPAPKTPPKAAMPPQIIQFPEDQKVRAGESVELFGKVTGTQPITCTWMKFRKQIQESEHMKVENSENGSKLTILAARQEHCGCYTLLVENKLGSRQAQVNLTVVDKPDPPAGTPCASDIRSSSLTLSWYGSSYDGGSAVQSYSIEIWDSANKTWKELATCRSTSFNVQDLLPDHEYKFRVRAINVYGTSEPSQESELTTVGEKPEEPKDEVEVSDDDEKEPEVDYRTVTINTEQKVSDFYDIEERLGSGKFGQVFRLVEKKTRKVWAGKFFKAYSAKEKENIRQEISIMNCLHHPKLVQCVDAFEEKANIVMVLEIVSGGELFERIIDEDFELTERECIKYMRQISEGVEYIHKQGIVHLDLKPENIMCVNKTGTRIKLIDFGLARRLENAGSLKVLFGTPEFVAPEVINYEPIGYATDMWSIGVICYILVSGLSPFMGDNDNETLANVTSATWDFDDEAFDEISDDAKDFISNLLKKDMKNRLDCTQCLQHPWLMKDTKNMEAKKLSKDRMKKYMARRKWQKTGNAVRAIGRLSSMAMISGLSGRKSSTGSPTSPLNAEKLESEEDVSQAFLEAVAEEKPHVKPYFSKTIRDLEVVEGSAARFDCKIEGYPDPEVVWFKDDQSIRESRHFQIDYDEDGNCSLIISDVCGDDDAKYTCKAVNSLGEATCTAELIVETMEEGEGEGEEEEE

EIF2AK1 = EIF2AK1 (Homo sapiens, UniProt Q9BQI3)
EIF2AK1, sequence (Q9BQI3 whole entry): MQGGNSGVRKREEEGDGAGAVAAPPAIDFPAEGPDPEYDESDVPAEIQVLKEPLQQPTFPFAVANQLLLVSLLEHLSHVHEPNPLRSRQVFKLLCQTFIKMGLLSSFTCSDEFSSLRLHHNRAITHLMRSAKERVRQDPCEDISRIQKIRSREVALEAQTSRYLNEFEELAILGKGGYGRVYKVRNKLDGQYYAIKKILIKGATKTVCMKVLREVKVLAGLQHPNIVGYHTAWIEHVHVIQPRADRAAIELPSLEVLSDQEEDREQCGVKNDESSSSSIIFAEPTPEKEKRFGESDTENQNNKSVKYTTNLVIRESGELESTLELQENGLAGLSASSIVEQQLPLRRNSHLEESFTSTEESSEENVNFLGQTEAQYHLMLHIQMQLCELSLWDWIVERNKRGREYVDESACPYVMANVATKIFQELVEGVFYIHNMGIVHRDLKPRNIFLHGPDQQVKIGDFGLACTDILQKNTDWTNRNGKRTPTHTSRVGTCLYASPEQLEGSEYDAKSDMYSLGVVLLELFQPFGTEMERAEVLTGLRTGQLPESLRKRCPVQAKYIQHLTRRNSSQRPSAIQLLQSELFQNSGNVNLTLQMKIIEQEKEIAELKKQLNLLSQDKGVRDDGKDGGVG

RIOK2 = RIOK2 (Homo sapiens, UniProt Q9BVS4)
RIOK2, sequence (Q9BVS4 whole entry): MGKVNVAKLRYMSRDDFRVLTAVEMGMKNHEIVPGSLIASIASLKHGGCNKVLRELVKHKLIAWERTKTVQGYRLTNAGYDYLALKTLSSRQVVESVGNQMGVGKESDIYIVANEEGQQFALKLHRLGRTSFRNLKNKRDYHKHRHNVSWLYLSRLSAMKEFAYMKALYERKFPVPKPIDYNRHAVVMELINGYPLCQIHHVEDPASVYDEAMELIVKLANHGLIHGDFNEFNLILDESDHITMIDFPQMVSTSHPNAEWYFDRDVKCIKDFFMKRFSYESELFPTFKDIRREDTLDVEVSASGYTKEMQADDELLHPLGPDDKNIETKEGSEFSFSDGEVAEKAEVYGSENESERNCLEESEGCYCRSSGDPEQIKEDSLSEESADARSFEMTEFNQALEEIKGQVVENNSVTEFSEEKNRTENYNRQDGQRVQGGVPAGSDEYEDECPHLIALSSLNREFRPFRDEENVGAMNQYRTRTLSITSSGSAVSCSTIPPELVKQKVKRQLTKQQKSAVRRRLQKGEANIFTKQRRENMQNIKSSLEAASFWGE

MAP3K6 = MAP3K6 (Homo sapiens, UniProt O95382)
PRKG1 = PRKG1 (Homo sapiens, UniProt Q13976)
MAP4K2 = MAP4K2 (Homo sapiens, UniProt Q12851)
MARK4 = MARK4 (Homo sapiens, UniProt Q96L34)
PRKCD = PRKCD (Homo sapiens, UniProt Q05655)
PDIK1L = PDIK1L (Homo sapiens, UniProt Q8N165)
NRK = NRK (Homo sapiens, UniProt Q7Z2Y5)
MKNK2 = MKNK2 (Homo sapiens, UniProt Q9HBH9)
PRKAG1 = PRKAG1 (Homo sapiens, UniProt P54619)
CSNK2A2 = CSNK2A2 (Homo sapiens, UniProt P19784)

IC50 (PAK4): ≥ 20 µM
IC50 (STK3): ≥ 20 µM
IC50 (IRAK1): ≥ 20 µM
IC50 (BTK): ≥ 20 µM
IC50 (CDC42BPA): ≥ 20 µM
IC50 (MAPK9): ≥ 20 µM
IC50 (NUAK1): ≥ 20 µM
IC50 (CLK1): ≥ 20 µM
IC50 (MYLK): ≥ 20 µM
IC50 (EIF2AK1): ≥ 20 µM
IC50 (RIOK2): ≥ 20 µM
IC50 (MAP3K6): ≥ 20 µM
IC50 (PRKG1): ≥ 20 µM
IC50 (MAP4K2): ≥ 20 µM
IC50 (MARK4): ≥ 20 µM
IC50 (PRKCD): ≥ 20 µM
IC50 (PDIK1L): ≥ 20 µM
IC50 (NRK): ≥ 20 µM
IC50 (MKNK2): ≥ 20 µM
IC50 (PRKAG1): ≥ 20 µM
IC50 (CSNK2A2): ≥ 20 µM
Structure (SMILES): COc1ccccc1-c1n[nH]c2nc(N[C@H]3CC[C@H](NS(=O)(=O)CCC(F)(F)F)CC3)nc(OC)c12 [compound 31, 3,3,3-Trifluoro-N-(trans-4-((4-methoxy-3-(2-methoxyphenyl)-1H-pyrazolo[3,4-d]pyrimidin-6-yl)amino)cyclohexyl)propane-1-sulfonamide]
